Results taken from patent publication US4731109A, “Herbicidal 2-haloacetanilides” (Monsanto Company, priority 1982, dated 1988).

What was measured:
Experiment in all cases: Greenhouse pre-emergence GR15/GR85 selectivity test
Assay type in all cases: in vivo
Quackgrass = test system: Quackgrass
Text: (§1) A good grade of top soil is placed in aluminum pans and compacted to a depth of three-eighths to one-half inch from the top of the pan. On the top of the soil is placed a number of seeds or vegetative propagules of various plant species. The soil required to level fill the pans after seeding or adding vegetative propagules is weighed into a pan. The soil and a known amount of the active ingredient applied in a solvent or as a wettable powder suspension are thoroughly mixed, and used to cover the prepared pans. […] As an alternative procedure, the overhead irrigation may be omitted. Observations are made about 2-3 weeks after seeding and treatment.
(§2) A further guide to the effectiveness of a chemical as a selective herbicide is the "selectivity factor" ("SF") for a herbicide in given crops and weeds. The selectivity factor is a measure of the relative degree of crop safety and weed injury and is expressed in terms of the GR15 /GR85 ratio, i.e., the GR15 rate for the crop divided by the GR85 rate for the weed, both rates in kg/ha (lb/A). In the tables below, selectivity factors are shown in parenthesis following the GR85 rate for each weed; the symbol "NS" indicates "non-selective". Marginal or undetermined selectivity is indicated by a dash (--).
(§3) These weeds are commonly associated with such major crops as corn and soybeans. […] The test procedure was the same as described for Tables II and III but modified by the application of an initial overhead irrigation equivalent to 1/4" (0.64 cm) rainfall; subsequent watering was accomplished by subirrigation. "NS" means non-selective within the test limits.
(§4) Unless otherwise noted; greenhouse tests in Table VI and in other tables below involved herbicide treatments by soil incorporation and an initial overhead irrigation followed by subirrigation as described above.

Yellow Nutsedge = test system: Yellow Nutsedge
Text: as §1, §2, §3, §4

corn = test system: corn
Text: (§5) A good grade of top soil is placed in aluminum pans and compacted to a depth of three-eighths to one-half inch from the top of the pan. On the top of the soil is placed a number of seeds or vegetative propagules of various plant species. The soil required to level fill the pans after seeding or adding vegetative propagules is weighed into a pan. The soil and a known amount of the active ingredient applied in a solvent or as a wettable powder suspension are thoroughly mixed, and used to cover the prepared pans. After treatment, the pans are given an initial overhead irrigation of eater, equivalent to one-fourth inch (0.64 cm) rainfall, then watered by subirrigation as need to give adequate moisture for germination and growth. As an alternative procedure, the overhead irrigation may be omitted. Observations are made about 2-3 weeks after seeding and treatment.
(§6) In the discussion and tables of data below, reference is made to herbicide application rates symbolized as "GR15 " and "GR85 "; these rates are given in kilograms per hectare (kg/ha) which are convertible into pounds per acre (lbs/A) by dividing the kg/ha rate by 1.12.
as §2
(§7) In Table IV pre-emergence herbicidal activity data are presented comparing the relative efficacy of the invention compounds and said prior art compounds as selective herbicides against the resistant and troublesome perennial weeds quackgrass and yellow nutsedge in soybeans and corn, respectively. These weeds are commonly associated with such major crops as corn and soybeans. The test data in Table IV were obtained under identical procedural conditions and represent two replicate runs (except for the compound of Example 9 which was present in one comparative test). The test procedure was the same as described for Tables II and III but modified by the application of an initial overhead irrigation equivalent to 1/4" (0.64 cm) rainfall; subsequent watering was accomplished by subirrigation. "NS" means non-selective within the test limits.
(§8) Additionally, pre-emergence herbicidal data from other tests have established that compounds according to this invention also selectively suppress quackgrass, yellow nutsedge and/or other weeds in one or more of the crops cotton, peanuts, bush beans and/or rape. For example, in Table VI are presented data showing the herbicidal selectivity of the compounds of Examples 1 and 2 against quackgrass in rape and snap beans. Unless otherwise noted; greenhouse tests in Table VI and in other tables below involved herbicide treatments by soil incorporation and an initial overhead irrigation followed by subirrigation as described above.

soybeans = test system: soybeans
Text: as §5, §6, §2, §7, §8

cotton = conditions: cotton/yellow nutsedge, average of two replicates
Text: as §5, §6, §2, §8
In one multi-crop test in the greenhouse, the compounds of Examples 1, 9, and 10 were tested against yellow nutsedge in cotton, soybeans, corn and rice; each compound was non-selective with respect to yellow nutsedge in rice. However, markedly high selectivities for yellow nutsedge in cotton, soybeans and corn were shown for each of the compounds in the test; the respective GR15 and GR85 rates for these compounds are shown in Table XII selectivity factors are shown in parenthesis after each crop.

[1] = quackgrass in soybeans, Table V
[2] = yellow nutsedge in corn, Table V
[3] = yellow nutsedge in soybeans, Table V
[4] = quackgrass in corn, Table IV, Replicate #2
[5] = yellow nutsedge in corn, Table IV, Replicate #1
[6] = yellow nutsedge in corn, Table IV, Replicate #2
[7] = yellow nutsedge in soybeans, Table IV, Replicate #1
[8] = yellow nutsedge in soybeans, Table IV, Replicate #2
[9] = in cotton, average of two replicates

Structure (SMILES): COCCN(C(=O)CCl)c1c(C)cccc1C(F)(F)F [C, N-(methoxyethyl)-2'-trifluoromethyl-6'-methyl-2-chloroacetanilide, reference compound]
- GR85 (Quackgrass; Table V): 0.28 Kg/Ha
- selectivity factor (GR15/GR85) (Quackgrass; quackgrass in corn, Table V): 5
- selectivity factor (GR15/GR85) (Quackgrass; [1]): > 10
- GR85 (Yellow Nutsedge; Table V): 0.28 Kg/Ha
- selectivity factor (GR15/GR85) (Yellow Nutsedge; [2]): 5
- selectivity factor (GR15/GR85) (Yellow Nutsedge; [3]): > 10
- GR15 (corn; Table V): 1.3 Kg/Ha

Structure (SMILES): COCCN(C(=O)CCl)c1ccccc1C(F)(F)F [A, N-(methoxyethyl)-2'-trifluoromethyl-2-chloroacetanilide, reference compound]
- GR85 (Quackgrass; Table IV, Replicate #1, extrapolated value): 2.5 Kg/Ha
- GR85 (Quackgrass; Table IV, Replicate #2): > 2.2 Kg/Ha
- selectivity factor (GR15/GR85) (Quackgrass; [4]): NS (non-selective)
- GR85 (Yellow Nutsedge; Table IV, Replicate #1): 1.2 Kg/Ha
- GR85 (Yellow Nutsedge; Table IV, Replicate #2): 1.0 Kg/Ha
- selectivity factor (GR15/GR85) (Yellow Nutsedge; [5]): > 2
- selectivity factor (GR15/GR85) (Yellow Nutsedge; [6]): 2
- selectivity factor (GR15/GR85) (Yellow Nutsedge; [7]): > 2
- selectivity factor (GR15/GR85) (Yellow Nutsedge; [8]): > 2
- GR15 (corn; Table IV, Replicate #1): > 2.2 Kg/Ha
- GR15 (corn; Table IV, Replicate #2): 2.2 Kg/Ha

Structure (SMILES): CCOCCN(C(=O)CCl)c1c(C)cccc1C(F)(F)F [E, N-(ethoxyethyl)-2'-trifluoromethyl-6'-methyl-2-chloroacetanilide, reference compound]
- GR85 (Quackgrass; Table V): 0.28 Kg/Ha
- selectivity factor (GR15/GR85) (Quackgrass; quackgrass in corn, Table V): 2.5
- selectivity factor (GR15/GR85) (Quackgrass; [1]): 3
- GR85 (Yellow Nutsedge; Table V): 0.22 Kg/Ha
- selectivity factor (GR15/GR85) (Yellow Nutsedge; [2]): 3
- selectivity factor (GR15/GR85) (Yellow Nutsedge; [3]): 4
- GR15 (corn; Table V): 0.67 Kg/Ha

Structure (SMILES): CCOCCN(C(=O)CCl)c1ccccc1C(F)(F)F [B, N-(ethoxyethyl)-2'-trifluoromethyl-2-chloroacetanilide, reference compound]
- GR85 (Quackgrass; Table IV, Replicate #1): 0.56 Kg/Ha
- GR85 (Quackgrass; Table IV, Replicate #2): 0.64 Kg/Ha
- selectivity factor (GR15/GR85) (Quackgrass; quackgrass in corn, Table IV, Replicate #1): 2
- selectivity factor (GR15/GR85) (Quackgrass; [4]): NS (non-selective)
- selectivity factor (GR15/GR85) (Quackgrass; quackgrass in soybeans, Table IV, Replicate #1): 3.5
- selectivity factor (GR15/GR85) (Quackgrass; quackgrass in soybeans, Table IV, Replicate #2): 3
- GR85 (Yellow Nutsedge; Table IV, Replicate #1): 0.47 Kg/Ha
- GR85 (Yellow Nutsedge; Table IV, Replicate #2): 0.43 Kg/Ha
- selectivity factor (GR15/GR85) (Yellow Nutsedge; [5]): 2.5
- selectivity factor (GR15/GR85) (Yellow Nutsedge; [6]): NS (non-selective)
- selectivity factor (GR15/GR85) (Yellow Nutsedge; [7]): 4
- selectivity factor (GR15/GR85) (Yellow Nutsedge; [8]): 4.5
- GR15 (corn; Table IV, Replicate #1): 1.2 Kg/Ha
- GR15 (corn; Table IV, Replicate #2): 0.37 Kg/Ha

Structure (SMILES): COCC(C)N(C(=O)CCl)c1c(C)cccc1C(F)(F)F (stereo not shown) [D, N-(methoxyisopropyl)-2'-trifluoromethyl-6'-methyl-2-chloroacetanilide, reference compound]
- GR85 (Quackgrass; Table V): 1.7 Kg/Ha
- selectivity factor (GR15/GR85) (Quackgrass; quackgrass in corn, Table V): 1
- selectivity factor (GR15/GR85) (Quackgrass; [1]): > 1.5
- GR85 (Yellow Nutsedge; Table V): 0.45 Kg/Ha
- selectivity factor (GR15/GR85) (Yellow Nutsedge; [2]): 4
- selectivity factor (GR15/GR85) (Yellow Nutsedge; [3]): > 6
- GR15 (corn; Table V): 2.0 Kg/Ha
- GR15 (soybeans; Table V): > 2.8 Kg/Ha

Structure (SMILES): C#CCOCN(C(=O)CCl)c1c(C)cccc1C(F)(F)F [Example 8, N--(propargyloxymethyl)-2'-trifluoromethyl-6'-methyl-2-chloroacetanilide]
- GR85 (Quackgrass; both corn and soybeans): 0.5 kg/ha
- S.F. (GR15/GR85) (Quackgrass; in corn): 4.5
- S.F. (GR15/GR85) (Quackgrass; in soybeans): 4.5
- GR85 (Yellow Nutsedge; in corn): 0.95 kg/ha
- S.F. (GR15/GR85) (Yellow Nutsedge; in corn): 2.5
- GR85 (Yellow Nutsedge; [9]): 0.95 kg/ha
- S.F. (GR15/GR85) (Yellow Nutsedge; [9]): 2
- GR85 (Yellow Nutsedge; in soybeans): 0.5 kg/ha
- S.F. (GR15/GR85) (Yellow Nutsedge; in soybeans): 4.5
- GR15 (corn; corn/quackgrass): > 2.2 kg/ha
- GR15 (corn; corn/yellow nutsedge): > 2.2 kg/ha
- GR15 (soybeans; soybeans/quackgrass): > 2.2 kg/ha
- GR15 (soybeans; soybeans/yellow nutsedge): 2.2 kg/ha
- GR15 (cotton): 2.0 kg/ha
